According to EPA's ToxRefDB 2:

How the values were obtained:
[1] = test system: mouse; details: Subchronic oral toxicity in rodents, cd1, Water, dose end: 90 day, group: systemic, systemic / hematology / leukocyte (wbc) count differential / leukocyte (wbc)
[2] = test system: mouse; details: Carcinogenicity, b6c3f1, Oral, Feed, dose end: 2 year, group: systemic
[3] = test system: rat; details: Subchronic oral toxicity in rodents, fischer, Feed, dose end: 13 week, group: systemic
[4] = test system: rat; details: Carcinogenicity, fischer, Oral, Feed, dose end: 2 year, group: systemic
[5] = test system: rat; details: Multigenerational reproductive toxicity study, wistar, Oral, Feed, dose end: 2 generation
[6] = test system: rat; details: Prenatal developmental toxicity study, fischer, Oral, Gavage/Intubation, dose end: 15 GD
[7] = test system: mouse; details: Subchronic oral toxicity in rodents, b6c3f1, Feed, dose end: 13 week, group: systemic
[8] = test system: mouse; details: Subchronic oral toxicity in rodents, cd1, Feed, dose end: 13 week, group: systemic
[9] = test system: rat; details: Combined chronic toxicity/carcinogenicity; fischer; Oral; Feed; dose end: 104 week; group: systemic; systemic / pathology microscopic / kidney / hemosiderosis
[10] = test system: mouse; details: Subchronic oral toxicity in rodents, cd1, Feed, dose end: 90 day, group: systemic
[11] = test system: rat; details: Subchronic oral toxicity in rodents, sprague dawley, Feed, dose end: 90 day, group: systemic
[12] = test system: dog; details: Subchronic oral toxicity in nonrodent, beagle, Feed, dose end: 13 week, group: systemic
[13] = test system: rat; details: Subchronic oral toxicity in rodents, fischer, Feed, dose end: 13 week, group: systemic; remark: listed apart in the source
[14] = test system: dog; details: Chronic toxicity, beagle, Oral, Feed, dose end: 12 month, group: systemic
[15] = test system: mouse; details: Subchronic oral toxicity in rodents, cd1, Feed, dose end: 13 week, group: systemic; remark: listed apart in the source
[16] = test system: rat; details: Subchronic inhalation toxicity, wistar, Whole-Body, dose end: 13 week, group: systemic
[17] = test system: rat; details: Subchronic inhalation toxicity, wistar, Whole-Body, dose end: 13 week, group: systemic, systemic / pathology microscopic / lung / alveolar macrophages + systemic / pathology microscopic / lung / fibrosis + systemic / pathology …
[18] = test system: rat; details: Subchronic inhalation toxicity, wistar, Whole-Body, dose end: 13 week, group: systemic, systemic / pathology microscopic / lung / alveolar macrophages + systemic / in life observation / body weight / body weight
[19] = test system: rat; details: Subchronic inhalation toxicity, wistar, Whole-Body, dose end: 13 week, group: systemic, systemic / clinical chemistry / alanine aminotransferase (alt/sgpt) / alanine aminotransferase (alt/sgpt) + systemic / clinical chemistry / …
[20] = test system: rabbit; details: Sub-acute repeat dose toxicity; Injection; Intravenous; dose end: 5 day; group: systemic; systemic / in life observation / clinical signs / altered breathing rate + systemic / in life observation / clinical signs / labored …
[21] = test system: rat; details: Sub-acute repeat dose toxicity, Injection, Intravenous, dose end: 5 day, group: systemic
[22] = test system: rabbit; details: Prenatal developmental toxicity study, Injection, Intravenous, dose end: 18 GD
[23] = systemic / in life observation / body weight / body weight
[24] = systemic / in life observation / body weight / body weight + systemic / in life observation / food consumption / food consumption
[25] = systemic / in life observation / body weight / body weight + systemic / pathology microscopic / bone marrow / atrophy + systemic / in life …
[26] = systemic / in life observation / food consumption / food consumption
[27] = group: offspring, systemic / pathology gross / mammary gland / discolored + systemic / pathology gross / mammary gland / enlarged
[28] = group: parental, systemic / in life observation / clinical signs / body surface staining + systemic / in life observation / body weight / body weight + …
[29] = group: parental, systemic / organ weight / pituitary gland / absolute + systemic / organ weight / pituitary gland / relative to body weight
[30] = group: reproductive, reproductive / reproductive performance / implantations / implantations
[31] = group: developmental, developmental / developmental malformation / bone / delayed ossification + developmental / developmental malformation / bone / unossified + …
[32] = group: maternal, systemic / in life observation / body weight / body weight + systemic / in life observation / body weight / body weight gain + systemic / in…
[33] = group: maternal, systemic / in life observation / body weight / body weight gain + systemic / in life observation / clinical signs / urogenital staining
[34] = systemic / pathology microscopic / liver / necrosis
[35] = systemic / organ weight / kidney / absolute + systemic / organ weight / kidney / relative to body weight + systemic / pathology microscopic…
[36] = systemic / in life observation / body weight / body weight + systemic / in life observation / body weight / body weight gain + systemic / in…
[37] = systemic / clinical chemistry / potassium / potassium
[38] = systemic / organ weight / thymus / absolute + systemic / organ weight / thymus / relative to body weight + systemic / pathology gross / …
[39] = systemic / clinical chemistry / albumin / albumin
[40] = systemic / pathology gross / gallbladder / [other] + systemic / pathology gross / gallbladder / distended + systemic / pathology microscopic…
[41] = systemic / organ weight / kidney / absolute + systemic / organ weight / liver / absolute + systemic / organ weight / liver / relative to …
[42] = systemic / pathology microscopic / lung / alveolar macrophages + systemic / pathology microscopic / lung / cholesterol cleft(s) + systemic…
[43] = systemic / pathology microscopic / ovary / degeneration + systemic / clinical chemistry / albumin / albumin + systemic / clinical chemistry…
[44] = group: developmental, developmental / developmental malformation / bone / incomplete ossification + systemic / in life observation / body weight / fetal weight

SMILES: Oc1ccc(Cl)cc1Cl [2,4-Dichlorophenol]
- LEL [1]: 383 mg/kg/day
- LOAEL [1]: > 383 mg/kg/day
- NEL [1]: 114 mg/kg/day
- NOAEL [1]: ≥ 383 mg/kg/day
- LOAEL [2, 23]: 430 mg/kg/day
- NOAEL [2, 23]: < 430 mg/kg/day
- LEL [2, 24]: 430 mg/kg/day
- NEL [2, 24]: < 430 mg/kg/day
- LOAEL ([3]; systemic / in life observation / body weight / body weight + systemic / pathology microscopic / bone marrow / atrophy): 1000 mg/kg/day
- NEL [3, 25]: 250 mg/kg/day
- NOAEL [3, 25]: 500 mg/kg/day
- LEL ([3]; systemic / pathology microscopic / bone marrow / atrophy): 500 mg/kg/day
- LEL [4, 26]: 120 mg/kg/day
- NEL [4, 26]: < 120 mg/kg/day
- LOAEL ([4]; systemic / pathology microscopic / nose / degeneration): 210 mg/kg/day
- LOAEL ([5]; group: offspring, developmental / developmental malformation / eye / open eye + systemic / in life observation / body weight / offspring (pup) weight): 543 mg/kg/day
- NOAEL ([5]; group: offspring, developmental / developmental malformation / eye / open eye + systemic / in life observation / body weight / offspring (pup) weight + …): 134 mg/kg/day
- LEL [5, 27]: 49.1 mg/kg/day
- NEL [5, 27]: < 49.1 mg/kg/day
- LOAEL [5, 28]: 543 mg/kg/day
- NOAEL [5, 28]: 134 mg/kg/day
- LEL [5, 29]: 33.4 mg/kg/day
- NEL [5, 29]: < 33.4 mg/kg/day
- LEL [5, 30]: 768 mg/kg/day
- LOAEL [5, 30]: 768 mg/kg/day
- NEL [5, 30]: 194 mg/kg/day
- NOAEL [5, 30]: 194 mg/kg/day
- LEL [6, 31]: 750 mg/kg/day
- LOAEL [6, 31]: > 750 mg/kg/day
- NEL [6, 31]: 375 mg/kg/day
- NOAEL [6, 31]: ≥ 750 mg/kg/day
- LOAEL [6, 32]: > 750 mg/kg/day
- NOAEL [6, 32]: ≥ 750 mg/kg/day
- LEL [6, 33]: 200 mg/kg/day
- NEL [6, 33]: < 200 mg/kg/day
- NOAEL ([7]; systemic / in life observation / body weight / body weight + systemic / in life observation / clinical signs / fur (altered appearance) + …): 1500 mg/kg/day
- LOAEL ([7]; systemic / in life observation / body weight / body weight + systemic / pathology microscopic / liver / necrosis + systemic / pathology …): 3000 mg/kg/day
- LEL [7, 34]: 375 mg/kg/day
- NEL [7, 34]: < 375 mg/kg/day

SMILES: CCCCOC(=O)[C@@H](C)Oc1ccc(Oc2ccc(C#N)cc2F)cc1 [Cyhalofop-butyl]
- LOAEL [8, 35]: 30 mg/kg/day
- NOAEL [8, 35]: 10 mg/kg/day
- LEL ([8]; systemic / organ weight / liver / relative to body weight): 3 mg/kg/day
- NEL ([8]; systemic / pathology microscopic / liver / inflammation + systemic / pathology microscopic / liver / necrosis + systemic / organ weight / …): 1 mg/kg/day
- LEL [9]: 3.44 mg/kg/day
- LOAEL [9]: 3.44 mg/kg/day
- NEL [9]: 0.823 mg/kg/day
- NOAEL [9]: 0.823 mg/kg/day
- LEL ([10]; systemic / organ weight / liver / absolute): 3.6 mg/kg/day
- NEL ([10]; systemic / organ weight / liver / absolute + systemic / in life observation / clinical signs / alopecia + systemic / organ weight / liver / …): 0.4 mg/kg/day
- LOAEL ([10]; systemic / pathology gross / kidney / enlarged + systemic / pathology microscopic / kidney / hypertrophy): 14.1 mg/kg/day
- NOAEL ([10]; systemic / pathology gross / kidney / enlarged + systemic / pathology microscopic / kidney / hypertrophy + systemic / organ weight / kidney…): 4.3 mg/kg/day
- LOAEL [11, 36]: 800 mg/kg/day
- NOAEL [11, 36]: 400 mg/kg/day
- LEL ([11]; systemic / organ weight / liver / absolute + systemic / organ weight / liver / relative to body weight + systemic / pathology gross / liver…): 25 mg/kg/day
- LEL [12, 37]: 3.17 mg/kg/day
- NEL [12, 37]: < 3.17 mg/kg/day
- LOAEL [12, 38]: 75.2 mg/kg/day
- NOAEL [12, 38]: 14.7 mg/kg/day
- LEL [13, 39]: 1.72 mg/kg/day
- NEL [13, 39]: < 1.72 mg/kg/day
- NOAEL ([13]; systemic / clinical chemistry / albumin / albumin + systemic / pathology microscopic / kidney / [other] + systemic / pathology microscopic…): 60.5 mg/kg/day
- LOAEL ([13]; systemic / pathology microscopic / kidney / [other] + systemic / pathology microscopic / kidney / pigmentation + systemic / pathology …): 190 mg/kg/day
- LEL ([14]; systemic / in life observation / body weight / body weight + systemic / in life observation / body weight / body weight gain): 7.59 mg/kg/day
- NEL ([14]; systemic / in life observation / body weight / body weight + systemic / in life observation / body weight / body weight gain + systemic / …): 1.22 mg/kg/day
- LOAEL [14, 40]: > 45.9 mg/kg/day
- NOAEL [14, 40]: ≥ 45.9 mg/kg/day
- LOAEL [15, 41]: > 350 mg/kg/day
- NOAEL [15, 41]: ≥ 350 mg/kg/day
- LEL ([15]; systemic / pathology gross / liver / foci): 3 mg/kg/day
- NEL ([15]; systemic / pathology gross / liver / foci + systemic / clinical chemistry / alkaline phosphatase (alp/alk) / alkaline phosphatase (alp/alk…): 1 mg/kg/day

SMILES: O=[Si]=O [Silica]
- LOAEL [16, 42]: > 0.03 ppm
- NOAEL [16, 42]: ≥ 0.03 ppm
- LEL ([16]; systemic / pathology microscopic / lung / proliferation): 0.001 ppm
- LEL [17]: 0.03 ppm
- LOAEL [17]: > 0.03 ppm
- NEL [17]: < 0.03 ppm
- NOAEL [17]: ≥ 0.03 ppm
- LEL [18]: 0.03 ppm
- LOAEL [18]: > 0.03 ppm
- NEL [18]: < 0.03 ppm
- NOAEL [18]: ≥ 0.03 ppm
- LEL [19]: 0.06 ppm
- LOAEL [19]: > 0.06 ppm
- NEL [19]: < 0.06 ppm
- NOAEL [19]: ≥ 0.06 ppm

SMILES: NC(N)=NC(=O)c1cnn(-c2cccc3ncccc23)c1C1CC1 [Zoniporide]
- LOAEL [20]: > 250 mg/kg/day
- NEL [20]: 50 mg/kg/day
- NOAEL [20]: ≥ 250 mg/kg/day
- NEL ([21]; systemic / pathology microscopic / blood vessel / inflammation + systemic / pathology microscopic / blood vessel / necrosis): < 25 mg/kg/day
- LOAEL [21, 43]: > 250 mg/kg/day
- NOAEL [21, 43]: ≥ 250 mg/kg/day
- LEL [22, 44]: 100 mg/kg/day
- LOAEL [22, 44]: > 100 mg/kg/day
- NOAEL [22, 44]: ≥ 100 mg/kg/day
- LEL [22, 32]: 100 mg/kg/day
- LOAEL [22, 32]: > 100 mg/kg/day
- NEL [22, 32]: 30 mg/kg/day
- NOAEL [22, 32]: ≥ 100 mg/kg/day
